Data on two molecules can be found in PMC9944328 (Nature Communications, 2023).

As usually defined, the Emax is the maximal effect, on the per cent scale that the assay sets. Usually EC50 stands for the concentration giving half of the maximal effect.

Experiment [1] deals with SSTR2 mutants (Homo sapiens, UniProt P30874, R140A).
Description: (§2) Wild-type or mutant SSTR2, β-arrestin 1-Nluc and FYVE-mVenus were co-transfected in HEK293 cells at a ratio of 1:0.5:4 on six-well plates. The next day, the transfected cells were plated on white 96-well and incubated overnight, and then cells were incubated with 90 µL HBSS containing 20 mM HEPES and coelenterazine h (5 µM) at room temperature for 40 min. After incubation, ligand was added and the signal was measured using the Synergy H1 microplate reader (BioTek) to determine a BRET ratio.
Experiment [2] deals with SSTR2 mutants (Homo sapiens, UniProt P30874, Y312A).
Description: as §2
Experiment [3] deals with acromegalic patients. The note with it: cited from earlier work. The source says:
Somatostatin receptors (SSTRs) are members of the G protein-coupled receptor (GPCR) superfamily and contain five subtypes (SSTR1–5). SSTRs, especially SSTR2, are expressed at high levels in NETs and have emerged as important biomarkers[4],[6]. SSTRs and their endogenous ligands, somatostatin (SST) peptides, exert important physiological regulation of neuroendocrine functions. […] However, the use of SST for disease treatment is li ... || SSTR2 transmits extracellular signals into cells through Gαi/o coupling and β-arrestin recruitment pathways. cAMP inhibition causes decreased hormone secretion and cell proliferation[13],[14], while the β-arrestin recruitment results in subsequent receptor internalization thus influence the cell membrane distribution level and desensitization of SSTR2, which may lead to drug resistance and poor clinical curative effect[15]–[18].

Experiment [4] has as its target SSTR2 mutants (Homo sapiens, UniProt P30874). The experiment is described as follows: SSTRs Gi-mediated cAMP inhibition, GloSensor, HEK293, 5 μM forskolin, 15 min room temperature (SSTR2 mutants). The class given is cell-based. The arrangement: Best-fit Bottom, cAMP inhibition / Best-fit Top, cAMP inhibition / Span, cAMP inhibition / Bottom (best-fit value) / Top (best-fit value) / Span (best-fit value) / Span (best-fit) / Bottom (best-fit) / Top (best-fit) / Best-fit Bottom / Best-fit Top / Best-fit Span / Top / Span: scale not given here. On the procedure:
(§1) The levels of the intracellular 3′, 5′-cyclic AMP (cAMP) were measured by the GloSensor cAMP assay (Promega) as described in the previous studies[28],[41] which has been widely used. The human full-length SSTRs and mutants were cloned into the pcDNA3.1+ vector with a HA signal sequence followed by a Flag tag at the N-terminus. HEK293 cells (ATCC, CRL-1573) were seeded into 6-well microplates at a density of 1.0 × 10^6 cells/well and cultured for 24 h at 37 °C with 5% CO2. Cells were then co-transfected with SSTR wild-type or mutants and GloSensor plasmids. After 24 h of transfection, the cells were dissociated with TrypLE™ Express Enzyme (1X) (Thermo Fisher Scientific) and collected by centrifugation at 500 × g for 5 min. Then the collected cells were suspended in Hank’s balanced salt solution [HBSS (Thermo Fisher Scientific)] supplemented with […] (YEASEN), and then the suspension cells were seeded into 96-well plates with 90 μl/well. After incubating at room temperature for 40 min, 5 μM forskolin and ligands diluted in HBSS were added to each well and the plates were incubated at room temperature for 15 min. […] were measured using the Synergy H1 microplate reader (BioTek) and the data presented are means of at least three independent experiments.

Experiment [5] concerns the target T1, SSTR2 mutants (Homo sapiens, UniProt P30874, I195A).
T1 construct: The human full-length SSTRs and mutants were cloned into the pcDNA3.1+ vector; expressed in transfected cells; host or cells: HEK293 (ATCC, CRL-1573)
The description is as above. The class given is cell-based. Further details: Best-fit Bottom, cAMP inhibition / Best-fit Top, cAMP inhibition / Span, cAMP inhibition / Bottom (best-fit value) / Top (best-fit value) / Span (best-fit value) / Span (best-fit) / Bottom (best-fit) / Top (best-fit) / Best-fit Bottom / Best-fit Top / Best-fit Span / Top / Span: scale not given here. The note with it: I195A, best-fit, runs 1-3. On the procedure:
as §1

For experiment [6], the target named is T2, SSTR2 mutants (Homo sapiens, UniProt P30874, L99A).
T2 construct: The human full-length SSTRs and mutants were cloned into the pcDNA3.1+ vector; expressed in transfected cells; host or cells: HEK293 (ATCC, CRL-1573)
Described as above. The format is cell-based. The arrangement: Best-fit Bottom, cAMP inhibition / Best-fit Top, cAMP inhibition / Span, cAMP inhibition / Bottom (best-fit value) / Top (best-fit value) / Span (best-fit value) / Span (best-fit) / Bottom (best-fit) / Top (best-fit) / Best-fit Bottom / Best-fit Top / Best-fit Span / Top / Span: scale not given here. The note with it: L99A, best-fit, runs 1-3. As for the experimental part:
as §1

The target in experiment [7] is T3, SSTR2 mutants (Homo sapiens, UniProt P30874, T194A).
T3 construct: The human full-length SSTRs and mutants were cloned into the pcDNA3.1+ vector; expressed in transfected cells; host or cells: HEK293 (ATCC, CRL-1573)
The experiment is described as above. The class given is cell-based. The arrangement: Best-fit Bottom, cAMP inhibition / Best-fit Top, cAMP inhibition / Span, cAMP inhibition / Bottom (best-fit value) / Top (best-fit value) / Span (best-fit value) / Span (best-fit) / Bottom (best-fit) / Top (best-fit) / Best-fit Bottom / Best-fit Top / Best-fit Span / Top / Span: scale not given here. The note with it: T194A, best-fit, runs 1-3. On the procedure:
as §1

For experiment [8], the target named is T4, SSTR2 mutants (Homo sapiens, UniProt P30874, Y50A).
T4 construct: The human full-length SSTRs and mutants were cloned into the pcDNA3.1+ vector; expressed in transfected cells; host or cells: HEK293 (ATCC, CRL-1573)
The experiment is described as above. The format is cell-based. The arrangement: Best-fit Bottom, cAMP inhibition / Best-fit Top, cAMP inhibition / Span, cAMP inhibition / Bottom (best-fit value) / Top (best-fit value) / Span (best-fit value) / Span (best-fit) / Bottom (best-fit) / Top (best-fit) / Best-fit Bottom / Best-fit Top / Best-fit Span / Top / Span: scale not given here. The note with it: Y50A, best-fit, runs 1-3. On the procedure: as §1

Experiment [9] deals with SSTR2 mutants (Homo sapiens, UniProt P30874, F294A). Nature of the experiment: Bystander BRET endosomal trafficking (β-arrestin 1-Nluc, FYVE-mVenus), HEK293 (SSTR2 mutants).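 On Bottom: percent of maximal wild-type response.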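 On all read-outs here: Read-out is the BRET ratio between Nluc-fused β-arrestin 1 and the early endosome marker FYVE-mVenus, measured after ligand addition with coelenterazine h as substrate.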 The note with it: for Bottom: best-fit value. (In general: In BRET a luciferase serves as donor, and the signal depends on an acceptor being close.)
Description: as §2
Experiment [10] addresses SSTR2 mutants (Homo sapiens, UniProt P30874, N276A). The experiment is described as above. The note with it: best-fit value.
Description: as §2

Several values for one entry are separate records, joined by “and”; a condition that tells them apart may be missing. Equal entries are not always repeated.

Sequence of SSTR2 mutants (Homo sapiens, UniProt P30874, F294A) (P30874 whole entry F294A, the tested form may be a part): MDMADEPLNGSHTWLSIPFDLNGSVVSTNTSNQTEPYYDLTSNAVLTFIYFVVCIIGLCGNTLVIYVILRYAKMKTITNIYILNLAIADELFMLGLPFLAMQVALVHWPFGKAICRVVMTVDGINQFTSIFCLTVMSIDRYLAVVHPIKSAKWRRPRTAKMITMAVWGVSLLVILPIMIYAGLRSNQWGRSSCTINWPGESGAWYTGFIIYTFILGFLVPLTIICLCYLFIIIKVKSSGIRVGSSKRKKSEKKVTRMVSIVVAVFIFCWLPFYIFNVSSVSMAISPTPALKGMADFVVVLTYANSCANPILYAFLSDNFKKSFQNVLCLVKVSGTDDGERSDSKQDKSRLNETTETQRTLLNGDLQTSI
T2 sequence (P30874 whole entry L99A): as the sequence (P30874 whole entry F294A, the tested form may be a part) above, with L99A, A294F counted along it
Sequence of SSTR2 mutants (Homo sapiens, UniProt P30874) (P30874 whole entry Y205R): as the sequence (P30874 whole entry F294A, the tested form may be a part) above, with Y205R, A294F counted along it
T1 sequence (P30874 whole entry I195A): as the sequence (P30874 whole entry F294A, the tested form may be a part) above, with I195A, A294F counted along it
T4 sequence (P30874 whole entry Y50A): as the sequence (P30874 whole entry F294A, the tested form may be a part) above, with Y50A, A294F counted along it
T3 sequence (P30874 whole entry T194A): as the sequence (P30874 whole entry F294A, the tested form may be a part) above, with T194A, A294F counted along it
Sequence of SSTR2 mutants (Homo sapiens, UniProt P30874, N276A) (P30874 whole entry N276A): as the sequence (P30874 whole entry F294A, the tested form may be a part) above, with N276A, A294F counted along it
Sequence of SSTR2 mutants (Homo sapiens, UniProt P30874, R140A) (P30874 whole entry R140A): as the sequence (P30874 whole entry F294A, the tested form may be a part) above, with R140A, A294F counted along it
Sequence of SSTR2 mutants (Homo sapiens, UniProt P30874, Y312A) (P30874 whole entry Y312A): as the sequence (P30874 whole entry F294A, the tested form may be a part) above, with A294F, Y312A counted along it

For `C[C@@H](O)[C@@H]1NC(=O)[C@H](CCCCN)NC(=O)[C@@H](Cc2c[nH]c3ccccc23)NC(=O)[C@H](Cc2ccccc2)NC(=O)[C@@H](NC(=O)[C@H](N)Cc2ccccc2)CSSC[C@@H](C(=O)N[C@H](CO)[C@@H](C)O)NC1=O` [octreotide], the Emax in [1] is 48.4 ± 0.93%. Further, the maximal effect (Emax) in [2] amounted to 45.6 ± 1.21%. For the same molecule, in experiment [3], the “Acromegalic patients who do not respond well” value is given as ~ 30% and the “SSTR2 expression level during administration” value is “down-regulated”.
With `N#Cc1cccc(-c2ccc3ncc(-c4cc(F)cc(F)c4)c(N4CCC(N)CC4)c3c2)c1O` [paltusotine], the EC50 in [4] (EC50, D295F, run 1) was 0.324 nM; in experiment [4] (EC50, D295F, run 2), 0.205 nM; in experiment [4] (EC50, D295F, run 3) it was 1.56 nM; in [4] (EC50, F294Y, run 1) it was 0.735 nM; in experiment [4] (EC50, F294Y, run 3), 0.676 nM; in experiment [4] (EC50, Y205R, run 1) it was 0.344 nM. The EC50 came to 0.237 nM in experiment [4] (EC50, Y205R, run 2) and 2094 ± 1.18 nM in experiment [9]. The Span in [5] is 93.79 and 93.25 and 119.7; in experiment [6] it was 97 and 104.2 and 101.2; in experiment [7], 81 and 79.63 and 75.68; in experiment [8] it was 121 and 122.3. In addition, the Top in experiment [5] was 101.8 and 93.82 and 123; in [6], 103.3 and 108.8 and 111.2; in experiment [7], 82.51 and 80.87 and 82.26; in [8], 113.5 and 115.2 and 115.4. In addition, the Emax in experiment [1] turned out to be 50.9 ± 2.01%; in [2], 41.3 ± 3%; in experiment [9] (HEK293), 95.1 ± 4.53%. The Bottom is listed as 0.7189 in experiment [9] (F294A-1 (run 1)); -2.342 in experiment [9] (F294A-2 (run 2)); -0.7874 in [9] (F294A-3 (run 3)); 0.05559 in [10] (N276A-1 (run 1)); -0.1543 in experiment [10] (N276A-2 (run 2)); -2.441 in experiment [10] (N276A-3 (run 3)).
